According to PMC4814829, “Design, synthesis, crystallization and biological evaluation of new symmetrical biscationic compounds as selective inhibitors of human Choline Kinase α1 (ChoKα1)” (Scientific Reports, 2016):

Experiments:
Jurkat cells = assay: Annexin-V/PI assay; format: cell-based, human; settings: 72 h, positive controls Cis-Pt 50 μM, Etoposide 5 μM
Method: (§1) Surface exposure of PS on apoptotic cells was measured by flow cytometry with Cytomics FC500 (Beckman Coulter) by adding simultaneously annexin-V conjugated to fluorescein isothiocyanate (FITC) and PI to cells according to the manufacturer′s instructions (Annexin-V Fluos, Roche Diagnostic).

MDA-MB-231 cells = assay: Annexin-V/PI assay; format: cell-based, human; settings: MDA-MB-231, 72 h; positive controls Cis-Pt 50 μM, Etoposide 5 μM
Method: as §1

MCF-7 cells = assay: Annexin-V/PI assay; format: cell-based, human; settings: MCF-7, 72 h; positive controls Cis-Pt 50 μM, Etoposide 5 μM
Method: as §1

human ChoKα1 = biological target: T1, human ChoKα1 (Homo sapiens, UniProt P35790); assay: Tryptophan fluorescence quenching; format: binding; settings: mean ± S.D. of at least three independent experiments; 25 °C, enzyme 1 μM; read-out: HsChoKα1 Kd
T1 construct: made in house
T1 sequence (P35790 whole entry): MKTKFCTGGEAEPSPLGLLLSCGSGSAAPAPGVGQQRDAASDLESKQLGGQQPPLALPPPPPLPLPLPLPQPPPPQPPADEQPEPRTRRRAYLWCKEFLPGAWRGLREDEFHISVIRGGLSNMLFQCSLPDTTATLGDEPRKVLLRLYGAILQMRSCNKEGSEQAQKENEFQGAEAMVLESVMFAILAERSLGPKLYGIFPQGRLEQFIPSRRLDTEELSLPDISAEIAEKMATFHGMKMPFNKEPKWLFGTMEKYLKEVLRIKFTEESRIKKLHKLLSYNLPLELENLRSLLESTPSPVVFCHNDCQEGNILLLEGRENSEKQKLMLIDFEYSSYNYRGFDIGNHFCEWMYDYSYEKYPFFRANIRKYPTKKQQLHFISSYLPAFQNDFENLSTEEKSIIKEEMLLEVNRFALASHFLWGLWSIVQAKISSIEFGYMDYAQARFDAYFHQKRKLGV
Method: All compounds were prepared in 100% DMSO. Their Kds against human ChoKα1 were measured by monitoring the quenching of tryptophan fluorescence. All experiments were performed in a Cary Eclipse spectrofluorometer (Varian) at 25 °C with the enzymes at 1 μM, and concentrations of compounds varying from 0.1 to 5 μM for ChoKα1 in 25 mM Tris, 150 mM NaCl, pH 7.5. Fluorescence emission spectra were recorded in the 300–400 nm range with an excitation wavelength of 280 nm, with slit width of 5 nm. Controls were determined by incubating the enzymes with equivalent amounts of DMSO. As indicated previously, data analysis was performed in Prism (GraphPad software) considering a model with a single binding site (Eq. 1), where F0 is the intrinsic fluorescence of the enzyme in the absence of quencher (Q), F1 is the observed fluorescence at a given quencher concentration, fa is the fractional degree of fluorescence, and Kd is the dissociation constant.

HL-60 cells = assay: Antiproliferative MTT assay; format: cell-based; settings: Homo sapiens, 72 h, mean ± SEM
Method in brief: (§2)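 Each tumour line is plated at 8 × 10^3 cells per well and left 18 h, then treated for 72 h with a concentration range of compound dissolved from DMSO stock. Incubation runs at 37 °C under 5% CO2, with DMSO kept at or below 0.25%.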

RS4,11 cells = assay: Antiproliferative MTT assay; format: cell-based; settings: Homo sapiens, 72 h, mean ± SEM
Method in brief: as §2

## CN(C)c1cc[n+](Cc2ccc(OCCOc3ccc(C[n+]4ccc(N(C)C)cc4)cc3)cc2)cc1.[Br-].[Br-] [Compound 10a, 1,1′-(((ethane-1,2-diylbis(oxy))bis(4,1-phenylene))bis(methylene))bis(4-(dimethylamino)pyridinium) bromide]
Jurkat cells
  Apoptotic cells (annexin-V/PI): modest increment in apoptotic cells
MDA-MB-231 cells
  Apoptotic cells (annexin-V/PI): not to be significantly different from that of the untreated cells
MCF-7 cells
  Apoptotic cells (annexin-V/PI): not to be significantly different from that of the untreated cells
Human ChoKα1
  Kd: 700 ± 80 nM
HL-60 cells
  GI50: 100 ± 40 nM
RS4,11 cells
  GI50: 45 ± 5 nM
